Source: patent US9893302B2, “Heterocyclic fluorescent dyes and method of production thereof” (BASF SE, priority 2013, dated 2018)
“And” between values parts separate entries of the source, which are not always exact repeats. Equal entries are not always repeated. Where two headings read alike, the source gives them in different places.

Assays:
[1] = Solubility in typical organic solvents; assay type: physicochemical; settings: for solubility compared with compound V-1: in typical organic solvents; for solubility: organic solvent or mixture
Source text: Reference is made to the below table.

[2] = Spectroscopic data: absorption, emission, Stokes shift, extinction coefficient, fluorescence quantum yield; assay type: physicochemical; settings: for φfl (fluorescence quantum yield): standards Rhodamine B or Rhodamine 6G in EtOH
Source text: Spectroscopic data of compounds 3a, 3b and 3d as well as comparative compounds
Rhodamine B in EtOH or Rhodamine 6G in EtOH are used as standards for quantum yield measurements.

[3] = in CHCl3, read-out: Solubility in CHCl3
[4] = in Toluene, read-out: Solubility in Toluene

SMILES | solubility compared with compound V-1 [1] | solubility [1, 3] | solubility [1, 4] | fluorescence quantum yield [2] | Stokes shift ([2]; solvent CHCl3) | maxλabs ([2]; solvent CHCl3) | maxλem ([2]; solvent CHCl3) | εmax ([2]; solvent CHCl3) | φfl (fluorescence quantum yield) ([2]; solvent CHCl3) | melting point | Stokes shift ([2]; solvent DMF) | maxλabs ([2]; solvent DMF) | maxλem ([2]; solvent DMF) | εmax ([2]; solvent DMF) | φfl (fluorescence quantum yield) ([2]; solvent DMF)
COc1cc2c(cc1OC)C1=C3C(=O)N4C=C(c5ccccc5)c5cc(OC)c(OC)cc5C4=C3C(=O)N1C=C2c1ccccc1 [3a] | order of magnitude higher | 3460 µM and 2110 µg/mL | 47 µM and 28.6 µg/mL | around 80% | 140 cm⁻¹ | 600 nm | 605 nm | 100000 M⁻¹ cm⁻¹ | 0.89 | – | – | – | – | – | –
COc1cccc(C2=CN3C(=O)C4=C5c6cc(OC)c(OC)cc6C(c6cccc(OC)c6)=CN5C(=O)C4=C3c3cc(OC)c(OC)cc32)c1 [3b] | order of magnitude higher | 955 µM and 639 µg/mL | 53.4 µM and 35.7 µg/mL | around 80% | 220 cm⁻¹ | 601 nm | 609 nm | 85000 M⁻¹ cm⁻¹ | 0.85 | – | – | – | – | – | –
CC(C)(C)c1cc(C(C)(C)C)c2oc3c(c2c1)C(c1ccccc1)=CN1C(=O)C2=C4c5oc6c(C(C)(C)C)cc(C(C)(C)C)cc6c5C(c5ccccc5)=CN4C(=O)C2=C31 [3d] | order of magnitude higher | – | – | around 80% | 160 cm⁻¹ | 654 nm | 661 nm | 150000 M⁻¹ cm⁻¹ | 0.81 | > 400 °C (dec.) | – | – | – | – | –

Next, values leading:

solubility compared with compound V-1 [1] | solubility [1, 3] | solubility [1, 4] | fluorescence quantum yield [2] | Stokes shift ([2]; solvent CHCl3) | maxλabs ([2]; solvent CHCl3) | maxλem ([2]; solvent CHCl3) | εmax ([2]; solvent CHCl3) | φfl (fluorescence quantum yield) ([2]; solvent CHCl3) | melting point | Stokes shift ([2]; solvent DMF) | maxλabs ([2]; solvent DMF) | maxλem ([2]; solvent DMF) | εmax ([2]; solvent DMF) | φfl (fluorescence quantum yield) ([2]; solvent DMF) | SMILES
– | 272 µM and 126 µg/mL | 6.13 µM and 2.85 µg/mL | – | 200 cm⁻¹ | 593 nm | 600 nm | 110000 M⁻¹ cm⁻¹ | 0.19 | – | 220 cm⁻¹ | 593 nm | 601 nm | 91000 M⁻¹ cm⁻¹ | 0.22 | COc1cc2c(cc1OC)C1=C3C(=O)N4C=Cc5cc(OC)c(OC)cc5C4=C3C(=O)N1C=C2 [V-1]
– | – | – | – | 210 cm⁻¹ | 643 nm | 652 nm | 120000 M⁻¹ cm⁻¹ | 0.05 | – | 240 cm⁻¹ | 645 nm | 655 nm | 107000 M⁻¹ cm⁻¹ | 0.02 | CC(C)(C)c1cc(C(C)(C)C)c2oc3c(c2c1)C=CN1C(=O)C2=C4c5oc6c(C(C)(C)C)cc(C(C)(C)C)cc6c5C=CN4C(=O)C2=C31 [V-2]
